The experiment has as its target T1, human κ opioid receptor (OPRK1) (Homo sapiens, UniProt P41145).
T1 construct: expressed in transfected cells; host or cells: CHO-K1
In words: Determination of activities of κ receptor agonists: inhibition of forskolin-stimulated cAMP release (HTRF) in stably transfected CHO-K1 cells. The following applies: for Relative Activity %: relative to Difelikefalin = 100.0. The format is cell-based. The source says:
Gi-coupled human κ opioid receptor (OPRK1), upon stimulation with its specific opioid receptor agonists, can inhibit the intracellular adenylate cyclase pathway, and decrease cAMP levels. Forskolin can stimulate cAMP release in cell lines highly expressing opioid receptors. By stimulating cell lines stably transfected with opioid receptors, the inhibitory effect of a test compound on forskolin-stimulated cAMP release can be measured to determine the activity of the compound. The relative light units (RLU) from the cells after stimulation with different doses were measured via the homogeneous time-resolved fluorescence technique (HTRF), and the EC50 value of the agonist was subsequently calculated. This activity determination method is a currently commonly used method for determining the activities of opioid receptor agonists at home and abroad.
A CHO-K1 cell line stably expressing opioid receptors was used. Stably transfected cells were stimulated with various concentrations of agonists (under the stimulation of a certain concentration of forskolin). The relative light units from the cells after stimulation with different doses were measured, from which the EC50 value of the agonist was subsequently obtained by calculation.

The structures appear in SMILES notation. Bridge positions count the residues as written; N and C are the ends. Square brackets hold non-standard residues; d marks the D form. Side chains are listed from the residue outwards. Peptide text beside a SMILES is read from it. I, II: the chains in the order shown. * marks the point of attachment. X3 = NCCCC[C@@H](NC(=O)[C@@H](CCCCN)NC(=O)C1(N)CCN(*)CC1)C(=O)O; X12 = CCOc1ccc(C[C@@H](NC(=O)[C@H](N)Cc2ccccc2)C(=O)*)cc1; X5 = NCCCC[C@@H](NC(=O)CNC(=O)C1(N)CCN(*)CC1)C(N)=O; X10 = NCCCC[C@@H](NC(=O)C1(N)CCN(*)CC1)C(=O)O; Api = NC1(C(=O)O)CCNCC1

Data on 17 molecules can be found in patent publication US20260274891A1, “¿ OPIOID RECEPTOR AGONIST AND USE THEREOF” (CHENGDU AODA BIOTECHNOLOGY CO., LTD., priority 2023, published 2026).

T1 sequence (P41145 whole entry): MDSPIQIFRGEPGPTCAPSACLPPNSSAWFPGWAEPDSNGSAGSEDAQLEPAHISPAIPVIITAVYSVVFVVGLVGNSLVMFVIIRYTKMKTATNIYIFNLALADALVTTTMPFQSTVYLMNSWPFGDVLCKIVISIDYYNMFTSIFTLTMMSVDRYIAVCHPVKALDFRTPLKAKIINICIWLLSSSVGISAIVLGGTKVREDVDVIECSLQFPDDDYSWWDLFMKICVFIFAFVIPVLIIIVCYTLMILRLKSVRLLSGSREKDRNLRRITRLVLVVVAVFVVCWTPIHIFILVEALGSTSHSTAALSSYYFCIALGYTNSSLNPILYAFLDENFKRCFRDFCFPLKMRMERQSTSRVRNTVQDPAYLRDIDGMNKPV

With `CCOc1ccc(C[C@@H](NC(=O)[C@H](N)Cc2ccccc2)C(=O)N[C@H](CC(C)C)C(=O)N[C@H](CCCCN)C(=O)N2CCC(N)(C(=O)N[C@@H](CCCCN)C(=O)N[C@@H](CCCCN)C(=O)N[C@@H](CCCCN)C(=O)N[C@@H](CCCCN)C(=O)N[C@@H](CCCCN)C(=O)N[C@@H](CCCCN)C(=O)O)CC2)cc1` [Compound 14, D-Phe-D-Tyr(Et)-D-Leu-D-Lys-4-aminopiperidine-4-carboxamide-Lys-Lys-Lys-Lys-Lys-Lys-OH] (H-[Api]([dK-dL-X12])KKKKKK-OH; N-terminus assumed), the EC50 was found to be 65.5 pM and the “Relative Activity %” value was 927.0%.

With `CCOc1ccc(C[C@@H](NC(=O)[C@H](N)Cc2ccccc2)C(=O)N[C@H](CC(C)C)C(=O)N[C@H](CCCCN)C(=O)N2CCC(N)(C(=O)N[C@H](CCCCN)C(=O)O)CC2)cc1` [Compound 16, D-Phe-D-Tyr(Et)-D-Leu-D-Lys-4-aminopiperidine-4-carboxamide-D-Lys-OH] (H-[dF][dY](Et)[dL][dK]-X10; N-terminus assumed), the EC50 turned out to be 43.1 pM and the “Relative Activity %” value was found to be 1408.8%.

For `CCOc1ccc(C[C@@H](NC(=O)[C@H](N)Cc2ccccc2)C(=O)N[C@H](CC(C)C)C(=O)N[C@H](CCCCN)C(=O)N2CCC(N)(C(=O)N[C@H](CCCCN)C(=O)N[C@H](CCCCN)C(=O)O)CC2)cc1` [Compound 18, D-Phe-D-Tyr(Et)-D-Leu-D-Lys-4-aminopiperidine-4-carboxamide-D-Lys-D-Lys-OH] (H-[dF][dY](Et)[dL][dK]-X3; N-terminus assumed), the EC50 was 46 pM and the “Relative Activity %” value turned out to be 1320.0%.

Regarding `CCOc1ccc(C[C@@H](NC(=O)[C@H](N)Cc2ccccc2)C(=O)N[C@H](CC(C)C)C(=O)N[C@H](CCCCN)C(=O)N2CCC(N)(C(=O)N[C@H](CCCCN)C(=O)N[C@H](CCCCN)C(=O)N[C@H](CCCCN)C(N)=O)CC2)cc1` [Compound 19, D-Phe-D-Tyr(Et)-D-Leu-D-Lys-4-aminopiperidine-4-carboxamide-D-Lys-D-Lys-D-Lys-NH2] (I: H-[Api][dK][dK][dK]-NH2 / II: H-[dF][dY](Et)[dL][dK]; amide I:1-II:C; N-terminus assumed), the concentration giving a half-maximal response (EC50) stood at 47.9 pM and the “Relative Activity %” value is on record as 1267.6%.

As to `CCOc1ccc(C[C@@H](NC(=O)[C@H](N)Cc2ccccc2)C(=O)N[C@H](CC(C)C)C(=O)N[C@H](CCCCN)C(=O)N2CCC(N)(C(=O)N[C@H](CCCCN)C(=O)N[C@H](CCCCN)C(=O)N[C@H](CCCCN)C(=O)N[C@H](CCCCN)C(N)=O)CC2)cc1` [Compound 21, D-Phe-D-Tyr(Et)-D-Leu-D-Lys-4-aminopiperidine-4-carboxamide-D-Lys-D-Lys-D-Lys-D-Lys -NH2] (H-[Api]([dK-dL-X12])[dK][dK][dK][dK]-NH2; N-terminus assumed), it took 50.1 pM to reach a half-maximal effect (EC50) and the “Relative Activity %” value is reported as 1212.0%.

Regarding `CCOc1ccc(C[C@@H](NC(=O)[C@H](N)Cc2ccccc2)C(=O)N[C@H](CC(C)C)C(=O)N[C@H](CCCCN)C(=O)N2CCC(N)(C(=O)N[C@H](CCCCN)C(=O)N[C@H](CCCCN)C(=O)N[C@H](CCCCN)C(=O)N[C@H](CCCCN)C(=O)N[C@H](CCCCN)C(N)=O)CC2)cc1` [Compound 23, D-Phe-D-Tyr(Et)-D-Leu-D-Lys-4-aminopiperidine-4-carboxamide-D-Lys-D-Lys-D-Lys-D-Lys -D-Lys-NH2] (H-[Api]([dK-dL-X12])[dK][dK][dK][dK][dK]-NH2; N-terminus assumed), the EC50 worked out at 55.4 pM and the “Relative Activity %” value came to 1096.0%.

Consider `CCOc1ccc(C[C@@H](NC(=O)[C@H](N)Cc2ccccc2)C(=O)N[C@H](CC(C)C)C(=O)N[C@H](CCCCN)C(=O)N2CCC(N)(C(=O)N[C@H](CCCCN)C(=O)N[C@H](CCCCN)C(=O)N[C@H](CCCCN)C(=O)N[C@H](CCCCN)C(=O)N[C@H](CCCCN)C(=O)N[C@H](CCCCN)C(N)=O)CC2)cc1` [Compound 25, D-Phe-D-Tyr(Et)-D-Leu-D-Lys-4-aminopiperidine-4-carboxamide-D-Lys-D-Lys-D-Lys-D-Lys -D-Lys-D-Lys-NH2] (H-[Api]([dK-dL-X12])[dK][dK][dK][dK][dK][dK]-NH2; N-terminus assumed), for which the EC50 came to 68.4 pM and the “Relative Activity %” value is 887.7%.

Take `CCOc1ccc(C[C@@H](NC(=O)[C@H](N)Cc2ccccc2)C(=O)N[C@H](CC(C)C)C(=O)N[C@H](CCCCN)C(=O)N2CCC(N)(C(=O)NCC(=O)N[C@H](CCCCN)C(N)=O)CC2)cc1` [Compound 49, D-Phe-D-Tyr(Et)-D-Leu-D-Lys-4-aminopiperidine-4-carboxamide-Gly-D-Lys-NH2] (H-[dF][dY](Et)[dL][dK]-X5; N-terminus assumed): the response was half-maximal at 44.5 pM (EC50) and the “Relative Activity %” value turned out to be 1364.5%.

As for `CCOc1ccc(C[C@@H](NC(=O)[C@H](N)Cc2ccccc2)C(=O)N[C@H](CC(C)C)C(=O)N[C@H](CCCCN)C(=O)N2CCC(N)(C(=O)NCC(=O)NCC(=O)N[C@@H](CCCCN)C(N)=O)CC2)cc1` [Compound 51, D-Phe-D-Tyr(Et)-D-Leu-D-Lys-4-aminopiperidine-4-carboxamide-Gly-Gly-Lys-NH2] (I: H-[Api]GGK-NH2 / II: H-[dF][dY](Et)[dL][dK]; amide I:1-II:C; N-terminus assumed), a half-maximal effect (EC50) was put at 47.7 pM and the “Relative Activity %” value is reported as 1273.0%.

With `CCOc1ccc(C[C@@H](NC(=O)[C@H](N)Cc2ccccc2)C(=O)N[C@H](CC(C)C)C(=O)N[C@H](CCCCN)C(=O)N2CCC(N)(C(=O)NCC(=O)NCC(=O)N[C@H](CCCCN)C(=O)O)CC2)cc1` [Compound 54, D-Phe-D-Tyr(Et)-D-Leu-D-Lys-4-aminopiperidine-4-carboxamide-Gly-Gly-D-Lys-OH] (I: H-[Api]GG[dK]-OH / II: H-[dF][dY](Et)[dL][dK]; amide I:1-II:C; N-terminus assumed), a half-maximal effect (EC50) was put at 47.1 pM and the “Relative Activity %” value is 1289.2%.

Turning to `CCOc1ccc(C[C@@H](NC(=O)[C@H](N)Cc2ccccc2)C(=O)N[C@H](CC(C)C)C(=O)N[C@H](CCCCN)C(=O)N2CCC(N)(C(=O)NCC(=O)NCC(=O)NCC(=O)N[C@@H](CCCCN)C(=O)O)CC2)cc1` [Compound 56, D-Phe-D-Tyr(Et)-D-Leu-D-Lys-4-aminopiperidine-4-carboxamide-Gly-Gly-Gly-Lys-OH] (H-[Api]([dK-dL-X12])GGGK-OH; N-terminus assumed), the EC50 was found to be 50.6 pM and the “Relative Activity %” value was determined as 1200.0%.

`CCOc1ccc(C[C@@H](NC(=O)[C@H](N)Cc2ccccc2)C(=O)N[C@H](CC(C)C)C(=O)N[C@H](CCCCN)C(=O)N2CCC(N)(C(=O)NCC(=O)NCC(=O)NCC(=O)N[C@H](CCCCN)C(N)=O)CC2)cc1` [Compound 57, D-Phe-D-Tyr(Et)-D-Leu-D-Lys-4-aminopiperidine-4-carboxamide-Gly-Gly-Gly-D-Lys-NH2] (H-[Api]([dK-dL-X12])GGG[dK]-NH2; N-terminus assumed): the EC50 is 51.4 pM and the “Relative Activity %” value turned out to be 1181.3%.

On to `CCOc1ccc(C[C@@H](NC(=O)[C@H](N)Cc2ccccc2)C(=O)N[C@H](CC(C)C)C(=O)N[C@H](CCCCN)C(=O)N2CCC(N)(C(=O)NCC(=O)NCC(=O)NCC(=O)N[C@H](CCCCN)C(=O)O)CC2)cc1` [Compound 58, D-Phe-D-Tyr(Et)-D-Leu-D-Lys-4-aminopiperidine-4-carboxamide-Gly-Gly-Gly-D-Lys-OH] (H-[Api]([dK-dL-X12])GGG[dK]-OH; N-terminus assumed), for which it took 51.5 pM to reach a half-maximal effect (EC50) and the “Relative Activity %” value is 1179.0%.

On to `CCOc1ccc(C[C@@H](NC(=O)[C@H](N)Cc2ccccc2)C(=O)N[C@H](CC(C)C)C(=O)N[C@H](CCCCN)C(=O)N2CCC(N)(C(=O)NCC(=O)NCC(=O)NCC(=O)NCC(=O)N[C@@H](CCCCN)C(N)=O)CC2)cc1` [Compound 59, D-Phe-D-Tyr(Et)-D-Leu-D-Lys-4-aminopiperidine-4-carboxamide-Gly-Gly-Gly-Gly-Lys-NH2] (H-[Api]([dK-dL-X12])GGGGK-NH2; N-terminus assumed), for which a half-maximal effect (EC50) was put at 69.4 pM and the “Relative Activity %” value came out at 874.9%.

As to `CCOc1ccc(C[C@@H](NC(=O)[C@H](N)Cc2ccccc2)C(=O)N[C@H](CC(C)C)C(=O)N[C@H](CCCCN)C(=O)N2CCC(N)(C(=O)NCC(=O)NCC(=O)NCC(=O)NCC(=O)N[C@H](CCCCN)C(N)=O)CC2)cc1` [Compound 61, D-Phe-D-Tyr(Et)-D-Leu-D-Lys-4-aminopiperidine-4-carboxamide-Gly-Gly-Gly-Gly-D-Lys-NH2] (H-[Api]([dK-dL-X12])GGGG[dK]-NH2; N-terminus assumed), a half-maximal response (EC50) required 70.6 pM and the “Relative Activity %” value stood at 860.1%.

Regarding `CCOc1ccc(C[C@@H](NC(=O)[C@H](N)Cc2ccccc2)C(=O)N[C@H](CC(C)C)C(=O)N[C@H](CCCCN)C(=O)N2CCC(N)(C(=O)NCC(=O)NCC(=O)NCC(=O)NCC(=O)NCC(=O)N[C@H](CCCCN)C(N)=O)CC2)cc1` [Compound 65, D-Phe-D-Tyr(Et)-D-Leu-D-Lys-4-aminopiperidine-4-carboxamide-Gly-Gly-Gly-Gly-Gly-D-Lys-NH2] (H-[Api]([dK-dL-X12])GGGGG[dK]-NH2; N-terminus assumed), the EC50 came out at 88.4 pM and the “Relative Activity %” value came out at 686.9%.

As to `CCOc1ccc(C[C@@H](NC(=O)[C@H](N)Cc2ccccc2)C(=O)N[C@H](CC(C)C)C(=O)N[C@H](CCCCN)C(=O)N2CCC(N)(C(=O)NCC(=O)NCC(=O)NCC(=O)NCC(=O)NCC(=O)N[C@H](CCCCN)C(=O)O)CC2)cc1` [Compound 66, D-Phe-D-Tyr(Et)-D-Leu-D-Lys-4-aminopiperidine-4-carboxamide-Gly-Gly-Gly-Gly-Gly-D-Lys-OH] (H-[Api]([dK-dL-X12])GGGGG[dK]-OH; N-terminus assumed), the response was half-maximal at 89.5 pM (EC50) and the “Relative Activity %” value was 678.4%.

Broadly, the EC50 is the concentration that produces a half-maximal response. A lower EC50 goes with a more potent agent.
